Read-outs that look alike come from different tables or passages of the source.
Tests used:
SKOV-3 cells = experiment: MTT cytotoxicity assay against SKOV-3 ovarian cancer cells; assay type: cell-based; conditions: Homo sapiens, read-out: IC50, cytotoxicity against SKOV-3
Protocol: (§1) The cytotoxic activities of the synthesized derivatives against ovarian cancer cell lines (SKOV-3) were evaluated using standard MTT assay. SKOV-3 cells cultivated on DMEM medium supplemented with 10% FBS, […], 1% antibiotic/antimycotic solution and 3.6 g/L NaHCO3 were used. Cells were incubated under standard laboratory conditions. Before testing compounds, cells were trypsinized, centrifuged and prepared as per our developed protocol. MTT assay relies on the enzymatic conversion of the MTT substrate into purple formazan by living cells mitochondrial enzymes. Shortly, 96 well plates were seeded (10,000 cells/100 µL/well), then incubated for 24 h at standard conditions. Afterwards, cells were exposed to different concentrations from prepared compounds and incubated for another 24 h. Thereafter, MTT (10 µL, 5 mg/mL, PBS) were added to each well, and plates were incubated for 4 h. Supernatants were then replaced discarded with 200 µL of DMSO to dissolve the precipitated formazan crystals. Formazan absorbance, proportional to living cell number, was read at 550 nm using a microplate reader. Viability percentages were calculated and the corresponding IC50 values were obtained from the linear regression of the calibration curve. For comparison, doxorubicin (DOX) and resveratrol (RES) were used as positive controls. Furthermore, the effect of the newly synthesized derivatives was tested against normal fibroblast cell line to assess their toxicities.

in vitro = assay type: cell-based
Protocol: as §1

topoisomerase II = experiment: Topoisomerase II relaxation assay; assay type: biochemical; conditions: topoisomerase II purified from P388 cells, relaxation of pBR-322 DNA; read-out: IC50, topoisomerase II inhibition
Protocol: The inhibitory effects of the synthesized compounds against topoisomerase II were investigated using relaxation assay according to Goyeneche, et al.. Topoisomerase II was purified from P388 cells, where enzyme unit corresponds to the activity required complete relaxation of […] of supercoiled pBR-322 DNA at 30 °C for 1 h. The assay was performed as per protocol and samples were subjected to electrophoresis (0.7% agarose gels, TBE buffer. Ethidium bromide-stained DNA was examined under UV light.

[1] = biological target: T1, V600EBRAF (mutant BRAF kinase) (Homo sapiens, UniProt P15056, V600E); experiment: In vitro ELISA-based kinase assay, V600EBRAF; assay type: biochemical; conditions: GST-MEK-His substrate
T1 construct: BRAF wild-type and V600E mutant kinase domains were expressed and purified; made in house; host or cells: Sf9 insect cells, baculovirus
T1 sequence (P15056 457-717 V600E limits assumed): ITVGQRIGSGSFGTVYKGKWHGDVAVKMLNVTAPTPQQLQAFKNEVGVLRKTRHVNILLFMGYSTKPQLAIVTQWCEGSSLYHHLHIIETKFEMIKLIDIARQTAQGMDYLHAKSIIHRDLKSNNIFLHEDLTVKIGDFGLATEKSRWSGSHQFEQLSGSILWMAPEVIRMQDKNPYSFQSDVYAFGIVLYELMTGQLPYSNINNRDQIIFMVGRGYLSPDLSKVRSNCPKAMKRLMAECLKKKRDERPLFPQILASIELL
Protocol: BRAF wild-type and V600E mutant kinase domains were expressed and purified according to Nakamura et al. [34]. Shortly, Sf 9 cells infected with BRAF kinase domain containing baculovirus were resuspended, sonicated, and then cleared using ultracentrifugation. Afterwards, the cleared lysate with mixed with equilibrated Talon resin, and the resin then washed with 10 column volumes of wash buffer and then eluted with buffer (25 mM Tris, pH 7.0, 250 mM NaCl, 160 mM imidazole, 10% glycerol). The eluant was then diluted, concentrated using Superdex 200 gel filtration column, purified as previously described and finally stored at –80 °C until use.
The previously prepared GST MEK-His protein was diluted in TTBS buffer (100 μL, 50 μg/mL), and then bound to 96-plate wells coated with glutathione (Pierce Biotechnology). Two DMSO-dilutions of each compound (1 µL) were added to 50 μL (50mM HEPES, pH7.0, 0.7 pmol of BRAF^V600E kinase). Tubes were incubated at ambient temperature for 1 h, then added to GST-MEK-His-plate wells. Afterwards, 50 μL of phosphorylation buffer were added to start kinase reaction (37 °C/30 min/shaking). Reaction was stopped, then substrate was added, and the signal was recorded. […]

[2] = SK-OV-3, SKOV-3 cells, MTT, 24 h exposure

SMILES: COCC1CC2C3CCc4cc(O)ccc4C3CCC2(C)C1NN (stereo not drawn) [Compound 3a, 16-(α-Methoxy-methane)-17-hydrazino-estra-1(10),2,4-trien-[17,16-c]-3-ol]
- IC50 (SKOV-3 cells; SK-OV-3, 24 h): 4.23 ± 0.12 nM
- IC50 at 24 h (in vitro): 1.2 µM
- IC50 (topoisomerase II): 3.45 ± 0.13 nM
- IC50 [1]: 41 ± 1.6 nM
- melting point: 199 to 201 °C

SMILES: COC(C)C1CC2C3CCc4cc(O)ccc4C3CCC2(C)C1NN (stereo not drawn) [Compound 3b, 16-(α-Methoxy-ethane)-17-hydrazino-estra-1(10),2,4-trien[17,16-c]-3-ol]
- IC50 at 24 h (in vitro): 2.45 µM
- melting point: 308 to 310 °C

SMILES: CCOCC1CC2C3CCc4cc(O)ccc4C3CCC2(C)C1NN (stereo not drawn) [Compound 3c, 16-(α-Ethoxy-methane)-17-hydrazino-estra-1(10),2,4-trien-[17,16-c]-3-ol]
- IC50 at 24 h (in vitro): 5.67 µM
- melting point: 219 to 221 °C

SMILES: CCOC(C)C1CC2C3CCc4cc(O)ccc4C3CCC2(C)C1NN (stereo not drawn) [Compound 3d, 16-(α-Ethoxy-ethane)-17-hydrazino-estra-1(10),2,4-trien-[17,16-c]-3-ol]
- IC50 at 24 h (in vitro): 7.44 µM
- melting point: 223 to 225 °C

SMILES: CNNC1C(COC)CC2C3CCc4cc(O)ccc4C3CCC21C (centres unmarked) [Compound 3e]
- IC50 at 24 h (in vitro): 8.11 µM
- melting point: 222 to 224 °C

SMILES: CNNC1C(C(C)OC)CC2C3CCc4cc(O)ccc4C3CCC21C (stereo not drawn) [Compound 3f, 16-(α-Methoxy-ethane)-17-[N-methyl-hydrazino]-estra-1(10),2,4-trien-[17,16-c]-3-ol]
- IC50 at 24 h (in vitro): 9.2 µM
- melting point: 310 to 312 °C

SMILES: CCOCC1CC2C3CCc4cc(O)ccc4C3CCC2(C)C1NNC (stereo not drawn) [Compound 3g, 16-(α-Ethoxy-methane)-17-[N-methyl-hydrazino]-estra-1(10),2,4-trien-[17,16-c]-3-ol]
- IC50 at 24 h (in vitro): 11.2 µM
- melting point: 286 to 288 °C

SMILES: CCOC(C)C1CC2C3CCc4cc(O)ccc4C3CCC2(C)C1NNC (stereo not drawn) [Compound 3h, 16-(α-Ethoxy-ethane)-17-[N-methyl-hydrazino]-estra-1(10),2,4-trien-[17,16-c]-3-ol]
- IC50 at 24 h (in vitro): 16.2 µM
- melting point: 280 to 282 °C

SMILES: COCC1CC2C3CCc4cc(O)ccc4C3CCC2(C)C1NNc1ccccc1 (stereo not drawn) [Compound 3i, 16-(α-Methoxy-methane)-17-[N-phenyl-hydrazino]-estra-1(10),2,4-trien-[17,16-c]-3-ol]
- IC50 at 24 h (in vitro): 15.1 µM
- melting point: 312 to 314 °C

SMILES: COC(C)C1CC2C3CCc4cc(O)ccc4C3CCC2(C)C1NNc1ccccc1 (stereo not drawn) [Compound 3j, 16-(α-Methoxy-ethane)-17-[N-phenyl-hydrazino]-estra-1(10),2,4-trien-[17,16-c]-3-ol]
- IC50 at 24 h (in vitro): 16.2 µM
- melting point: 229 to 231 °C

SMILES: CCOCC1CC2C3CCc4cc(O)ccc4C3CCC2(C)C1NNc1ccccc1 (stereo not drawn) [Compound 3k, 16-(α-Ethoxy-methane)-17-[N-phenyl-hydrazino]-estra-1(10),2,4-trien-[17,16-c]-3-ol]
- IC50 at 24 h (in vitro): 17.8 µM
- melting point: 338 to 340 °C

SMILES: CCOC(C)C1CC2C3CCc4cc(O)ccc4C3CCC2(C)C1NNc1ccccc1 (stereo not drawn) [Compound 3l, 16-(α-Ethoxy-ethane)-17-[N-phenyl-hydrazino]-estra-1(10),2,4-trien-[17,16-c]-3-ol]
- IC50 at 24 h (in vitro): 20.2 µM
- melting point: 288 to 300 °C

SMILES: CN1CC2CC3C4CCc5cc(O)ccc5C4CCC3(C)C2=N1 (centres unmarked) [Compound 4a, 1`-Methyl-1`H-estra-1(10),2,4-trien-[17,16-c]pyrazoline-3-ol]
- IC50 at 24 h (in vitro): 23.3 µM
- melting point: 117 to 119 °C

SMILES: CC1C2CC3C4CCc5cc(O)ccc5C4CCC3(C)C2=NN1C (centres unmarked) [Compound 4b, 1`-Methyl-1`H-5`-methyl-estra-1(10),2,4-trien-[17,16-c]pyrazoline-3-ol]
- IC50 at 24 h (in vitro): 24.6 µM
- melting point: 216 to 218 °C

SMILES: CC12CCC3c4ccc(O)cc4CCC3C1CC1CN(c3ccccc3)N=C12 (centres unmarked) [Compound 4c, 1`-Phenyl-1`H-estra-1(10),2,4-trien-[17,16-c]pyrazoline-3-ol]
- IC50 at 24 h (in vitro): 25.6 µM
- melting point: 255 to 257 °C

SMILES: CC1C2CC3C4CCc5cc(O)ccc5C4CCC3(C)C2=NN1c1ccccc1 (centres unmarked) [Compound 4d, 1`-Phenyl-1`H-5`-methyl-estra-1(10),2,4-trien-[17,16-c]pyrazoline-3-ol]
- IC50 at 24 h (in vitro): 30.3 µM
- IC50 (topoisomerase II): 43.6 ± 0.98 nM
- melting point: 214 to 216 °C

SMILES: COc1cccc2c1C(=O)c1c(O)c3c(c(O)c1C2=O)C[C@@](O)(C(=O)CO)C[C@@H]3O[C@H]1C[C@H](N)[C@H](O)[C@H](C)O1 [doxorubicin]
- IC50 (SKOV-3 cells; [2]): 250 nM

SMILES: Oc1ccc(/C=C/c2cc(O)cc(O)c2)cc1 [resveratrol]
- IC50 (SKOV-3 cells; [2]): 55 nM
